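Grown in 96-well plates, cells were treated for 48 hours with each compound at five concentrations. Insufficient inhibition: endpoint recorded as highest concentration tested. The concentration for 50% growth inhibition is given as GI50. TGI: total growth inhibition.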
Assays:
Assay in all cases: DTP human tumour cell line panel, 48 h
NCI-H460 lung = system: NCI-H460 lung
DU-145 prostate = system: DU-145 prostate
OVCAR-4 ovarian = system: OVCAR-4 ovarian
SK-MEL-2 melanoma = system: SK-MEL-2 melanoma
BT-549 breast = system: BT-549 breast
SK-OV-3 ovarian = system: SK-OV-3 ovarian
K-562 leukemia = system: K-562 leukemia
OVCAR-3 ovarian = system: OVCAR-3 ovarian
IGROV1 ovarian = system: IGROV1 ovarian
MCF7 breast = system: MCF7 breast
ACHN renal = system: ACHN renal
NCI/ADR-RES ovarian = system: NCI/ADR-RES ovarian
MDA-MB-231 breast = system: MDA-MB-231 breast
UACC-62 melanoma = system: UACC-62 melanoma
MDA-MB-435 = system: MDA-MB-435
HCT-116 colon = system: HCT-116 colon
SK-MEL-5 melanoma = system: SK-MEL-5 melanoma
UACC-257 melanoma = system: UACC-257 melanoma
OVCAR-5 ovarian = system: OVCAR-5 ovarian
SF-295 CNS = system: SF-295 CNS
KM12 colon = system: KM12 colon
NCI-H522 lung = system: NCI-H522 lung
EKVX NSCLC = system: EKVX NSCLC
RXF 393 renal = system: RXF 393 renal
HOP-62 NSCLC = system: HOP-62 NSCLC
SR leukemia = system: SR leukemia
SK-MEL-28 melanoma = system: SK-MEL-28 melanoma
PC-3 prostate = system: PC-3 prostate

COc1ccc(-c2cc(-c3cccn3C)c(C#N)c(=O)[nH]2)cc1OC
GI50 (NCI-H460 lung): > 100 µM | TGI (NCI-H460 lung): > 100 µM | GI50 (DU-145 prostate): > 100 µM | TGI (DU-145 prostate): > 100 µM | GI50 (OVCAR-4 ovarian): > 100 µM | TGI (OVCAR-4 ovarian): > 100 µM | GI50 (SK-MEL-2 melanoma): > 100 µM | TGI (SK-MEL-2 melanoma): > 100 µM | GI50 (BT-549 breast): > 100 µM | TGI (BT-549 breast): > 100 µM | GI50 (SK-OV-3 ovarian): > 100 µM | TGI (SK-OV-3 ovarian): > 100 µM | GI50 (K-562 leukemia): > 100 µM | TGI (K-562 leukemia): > 100 µM | GI50 (OVCAR-3 ovarian): > 100 µM | TGI (OVCAR-3 ovarian): > 100 µM | GI50 (IGROV1 ovarian): 91.7 µM | TGI (IGROV1 ovarian): > 100 µM | GI50 (MCF7 breast): > 100 µM | TGI (MCF7 breast): > 100 µM | GI50 (ACHN renal): > 100 µM | TGI (ACHN renal): > 100 µM | GI50 (NCI/ADR-RES ovarian): > 100 µM | TGI (NCI/ADR-RES ovarian): > 100 µM | GI50 (MDA-MB-231 breast): > 100 µM | TGI (MDA-MB-231 breast): > 100 µM | GI50 (UACC-62 melanoma): 65.5 µM | TGI (UACC-62 melanoma): > 100 µM | GI50 (MDA-MB-435): > 100 µM | TGI (MDA-MB-435): > 100 µM | GI50 (HCT-116 colon): > 100 µM | TGI (HCT-116 colon): > 100 µM | GI50 (SK-MEL-5 melanoma): > 100 µM | TGI (SK-MEL-5 melanoma): > 100 µM | GI50 (UACC-257 melanoma): > 100 µM | TGI (UACC-257 melanoma): > 100 µM | GI50 (OVCAR-5 ovarian): > 100 µM | TGI (OVCAR-5 ovarian): > 100 µM | GI50 (SF-295 CNS): > 100 µM | TGI (SF-295 CNS): > 100 µM | GI50 (KM12 colon): > 100 µM | TGI (KM12 colon): > 100 µM | GI50 (NCI-H522 lung): > 100 µM | TGI (NCI-H522 lung): > 100 µM | GI50 (EKVX NSCLC): 30.7 µM | TGI (EKVX NSCLC): > 100 µM | GI50 (RXF 393 renal): > 100 µM | TGI (RXF 393 renal): > 100 µM | GI50 (HOP-62 NSCLC): > 100 µM | TGI (HOP-62 NSCLC): > 100 µM | GI50 (SR leukemia): 0.483 µM | TGI (SR leukemia): > 100 µM | GI50 (SK-MEL-28 melanoma): > 100 µM | TGI (SK-MEL-28 melanoma): > 100 µM | GI50 (PC-3 prostate): > 100 µM | TGI (PC-3 prostate): > 100 µM
